The NIST ThermoML archive (doi:10.1021/acs.jced.5b00562)

Details: for specific volume: Gas, isochoric method; for mass density: Liquid, Vibrating tube method

F/C=C(\F)C(F)(F)F [(Z)-1,2,3,3,3-pentafluoro-1-propene]
Details	mass density [kg/m3]	specific volume [m3/kg]
263.15 K, 135.2 kPa	–	0.115
268.15 K, 138.3 kPa	–	0.115
273.14 K, 141.3 kPa	–	0.116
273.15 K, 202.4 kPa	–	0.079
278.15 K, 144.3 kPa	–	0.116
278.15 K, 207 kPa	–	0.079
282.83 K, 301.1 kPa	–	0.054
283.14 K, 12501 kPa	1378.7	–
283.15 K, 211.5 kPa	–	0.079
283.15 K, 510 kPa	1329.6	–
283.15 K, 604 kPa	1330.1	–
283.15 K, 1003 kPa	1332	–
283.15 K, 1499 kPa	1334.5	–
283.15 K, 1997 kPa	1336.8	–
283.15 K, 2500 kPa	1339.1	–
283.15 K, 5000 kPa	1350.2	–
283.15 K, 7499 kPa	1360.3	–
283.15 K, 9998 kPa	1369.8	–
283.15 K, 15001 kPa	1387	–
283.15 K, 17501 kPa	1395	–
283.15 K, 20001 kPa	1402.5	–
283.15 K, 22497 kPa	1409.9	–
283.15 K, 25000 kPa	1417	–
283.16 K, 147.3 kPa	–	0.116
283.16 K, 27503 kPa	1423.9	–
283.16 K, 29999 kPa	1430.3	–
283.16 K, 32498 kPa	1436.2	–
283.16 K, 35004 kPa	1442.4	–
287.91 K, 307.5 kPa	–	0.054
288.15 K, 150.2 kPa	–	0.116
288.15 K, 215.6 kPa	–	0.079
292.78 K, 314.1 kPa	–	0.054
293.15 K, 152.7 kPa	–	0.116
293.15 K, 220 kPa	–	0.079
293.15 K, 470 kPa	1293.2	–
293.15 K, 598 kPa	1293.9	–
293.15 K, 1000 kPa	1296.2	–
293.15 K, 1500 kPa	1299.1	–
293.15 K, 2000 kPa	1301.9	–
293.15 K, 2500 kPa	1304.6	–
293.15 K, 5000 kPa	1317.4	–
293.15 K, 7500 kPa	1329	–
293.15 K, 10001 kPa	1339.8	–
293.15 K, 12500 kPa	1349.7	–
293.15 K, 14999 kPa	1359	–
293.15 K, 17500 kPa	1367.8	–
293.15 K, 20000 kPa	1376	–
293.15 K, 22500 kPa	1383.9	–
293.15 K, 25000 kPa	1391.4	–
293.15 K, 27499 kPa	1398.5	–
293.15 K, 30000 kPa	1405.4	–
293.15 K, 32500 kPa	1412	–
293.15 K, 34999 kPa	1418.5	–
297.14 K, 418.9 kPa	–	0.04
298.15 K, 155.7 kPa	–	0.116
298.15 K, 224.3 kPa	–	0.079
298.15 K, 498.5 kPa	–	0.032
298.47 K, 320.7 kPa	–	0.054
303.14 K, 327 kPa	–	0.054
303.14 K, 510.2 kPa	–	0.032
303.15 K, 158.7 kPa	–	0.116
303.15 K, 228.2 kPa	–	0.079
303.15 K, 430 kPa	–	0.04
303.15 K, 700 kPa	1255.3	–
303.15 K, 1000 kPa	1257.4	–
303.15 K, 1500 kPa	1260.9	–
303.15 K, 2000 kPa	1264.3	–
303.15 K, 7500 kPa	1296.6	–
303.15 K, 9999 kPa	1308.8	–
303.15 K, 12500 kPa	1320.1	–
303.15 K, 20000 kPa	1349.2	–
303.15 K, 22501 kPa	1357.8	–
303.15 K, 24999 kPa	1366	–
303.15 K, 27500 kPa	1374.4	–
303.16 K, 2499 kPa	1267.8	–
303.16 K, 5000 kPa	1283.2	–
303.16 K, 14996 kPa	1330.5	–
303.16 K, 17500 kPa	1340.2	–
303.16 K, 30000 kPa	1381.8	–
303.16 K, 32500 kPa	1388.8	–
303.16 K, 35000 kPa	1395.6	–
308.12 K, 522.1 kPa	–	0.032
308.14 K, 161.7 kPa	–	0.116
308.14 K, 612.3 kPa	–	0.027
308.15 K, 232.8 kPa	–	0.079
308.15 K, 333.9 kPa	–	0.054
308.15 K, 439 kPa	–	0.04
312.86 K, 236.9 kPa	–	0.079
313.13 K, 533.4 kPa	–	0.032
313.14 K, 627 kPa	–	0.027
313.14 K, 7500 kPa	1262.1	–
313.14 K, 10000 kPa	1276.1	–
313.15 K, 164.2 kPa	–	0.116
313.15 K, 447.9 kPa	–	0.04
313.15 K, 1000 kPa	1216.2	–
313.15 K, 1500 kPa	1220.4	–
313.15 K, 2008 kPa	1224.6	–
313.15 K, 5000 kPa	1246.4	–
313.15 K, 12501 kPa	1288.9	–
313.15 K, 15000 kPa	1300.5	–
313.15 K, 17497 kPa	1311.3	–
313.15 K, 20000 kPa	1321.4	–
313.15 K, 22500 kPa	1330.8	–
313.15 K, 25000 kPa	1339.7	–
313.15 K, 27500 kPa	1348.1	–
313.15 K, 30001 kPa	1356.1	–
313.15 K, 32500 kPa	1363.7	–
313.15 K, 35000 kPa	1371	–
313.16 K, 340.4 kPa	–	0.054
313.16 K, 2501 kPa	1228.3	–
318.14 K, 346.9 kPa	–	0.054
318.14 K, 641.3 kPa	–	0.027
318.15 K, 166.8 kPa	–	0.116
318.15 K, 241.3 kPa	–	0.079
318.15 K, 457 kPa	–	0.04
318.23 K, 544.9 kPa	–	0.033
323.14 K, 353.4 kPa	–	0.054
323.14 K, 555.9 kPa	–	0.033
323.14 K, 655.2 kPa	–	0.027
323.15 K, 169.7 kPa	–	0.116
323.15 K, 245.6 kPa	–	0.079
323.15 K, 1296 kPa	1172.9	–
323.15 K, 7500 kPa	1226.8	–
323.15 K, 10001 kPa	1243.3	–
323.15 K, 12499 kPa	1257.6	–
323.15 K, 15000 kPa	1270.8	–
323.15 K, 17499 kPa	1282.9	–
323.15 K, 19999 kPa	1294	–
323.15 K, 22500 kPa	1304.4	–
323.15 K, 25001 kPa	1314.1	–
323.15 K, 27500 kPa	1323.2	–
323.15 K, 30001 kPa	1331.8	–
323.15 K, 32501 kPa	1340	–
323.15 K, 35001 kPa	1347.7	–
323.16 K, 466.1 kPa	–	0.04
323.16 K, 1499 kPa	1175.1	–
323.16 K, 2000 kPa	1180.3	–
323.16 K, 2502 kPa	1185.5	–
323.16 K, 4998 kPa	1207.9	–
328.07 K, 566.8 kPa	–	0.033
328.11 K, 360.1 kPa	–	0.054
328.14 K, 669.2 kPa	–	0.027
328.15 K, 172.6 kPa	–	0.116
328.15 K, 249.7 kPa	–	0.079
328.15 K, 475.1 kPa	–	0.04
333.1 K, 365.4 kPa	–	0.054
333.1 K, 578.2 kPa	–	0.033
333.13 K, 682.7 kPa	–	0.027
333.15 K, 174.9 kPa	–	0.116
333.15 K, 253.9 kPa	–	0.079
333.15 K, 483.9 kPa	–	0.04
333.15 K, 1502 kPa	1124.9	–
333.15 K, 1999 kPa	1132	–
333.15 K, 2500 kPa	1138.6	–
333.15 K, 5000 kPa	1166.8	–
333.15 K, 7500 kPa	1189.4	–
333.15 K, 10000 kPa	1208.6	–
333.15 K, 12500 kPa	1225.4	–
333.15 K, 15000 kPa	1240.4	–
333.15 K, 17500 kPa	1255	–
333.15 K, 20000 kPa	1266.6	–
333.15 K, 22500 kPa	1278.1	–
333.15 K, 25003 kPa	1288.8	–
333.15 K, 27500 kPa	1298.8	–
333.15 K, 29999 kPa	1308.2	–
333.15 K, 32500 kPa	1317.8	–
333.15 K, 35000 kPa	1326.3	–
338.08 K, 589.4 kPa	–	0.033
338.08 K, 696.3 kPa	–	0.027
338.14 K, 371.5 kPa	–	0.054
338.15 K, 177.9 kPa	–	0.116
338.15 K, 257.7 kPa	–	0.079
338.15 K, 492.8 kPa	–	0.04
343.08 K, 600.4 kPa	–	0.033
343.09 K, 377.8 kPa	–	0.054
343.13 K, 710 kPa	–	0.027
343.15 K, 181 kPa	–	0.116
343.15 K, 262.4 kPa	–	0.079
343.15 K, 501.5 kPa	–	0.04
343.15 K, 1800 kPa	1070	–
343.15 K, 2000 kPa	1074.1	–
343.15 K, 2500 kPa	1083.8	–
343.15 K, 5001 kPa	1121.1	–
343.15 K, 7500 kPa	1149.2	–
343.15 K, 10001 kPa	1172	–
343.15 K, 12500 kPa	1191.5	–
343.15 K, 15000 kPa	1208.5	–
343.15 K, 17500 kPa	1223.8	–
343.15 K, 20000 kPa	1237.6	–
343.15 K, 22500 kPa	1250.3	–
343.15 K, 27500 kPa	1273.2	–
343.15 K, 30000 kPa	1283.5	–
343.15 K, 32500 kPa	1293.3	–
343.15 K, 35000 kPa	1302.5	–
343.16 K, 25000 kPa	1262.3	–
348.06 K, 611.4 kPa	–	0.033
348.07 K, 383.7 kPa	–	0.054
348.14 K, 723.7 kPa	–	0.027
348.15 K, 183.8 kPa	–	0.116
348.15 K, 266.6 kPa	–	0.079
348.15 K, 510.2 kPa	–	0.04
353.05 K, 390.1 kPa	–	0.054
353.11 K, 622.8 kPa	–	0.033
353.13 K, 737.3 kPa	–	0.027
353.14 K, 20000 kPa	1209	–
353.15 K, 186.6 kPa	–	0.116
353.15 K, 270.7 kPa	–	0.079
353.15 K, 518.9 kPa	–	0.04
353.15 K, 5000 kPa	1070.7	–
353.15 K, 7500 kPa	1106.5	–
353.15 K, 10000 kPa	1134	–
353.15 K, 12500 kPa	1156.8	–
353.15 K, 15000 kPa	1176.3	–
353.15 K, 17500 kPa	1193.5	–
353.15 K, 22500 kPa	1223	–
353.15 K, 25000 kPa	1235.9	–
353.15 K, 27500 kPa	1247.9	–
353.15 K, 30000 kPa	1259	–
353.15 K, 32502 kPa	1269.4	–
353.16 K, 2500 kPa	1016.9	–
353.16 K, 35001 kPa	1279.2	–
358.11 K, 397.3 kPa	–	0.054
358.15 K, 189.5 kPa	–	0.116
358.15 K, 274.5 kPa	–	0.079
358.15 K, 527.6 kPa	–	0.04
358.15 K, 750.7 kPa	–	0.027
358.17 K, 633.7 kPa	–	0.033
363.13 K, 764 kPa	–	0.027
363.14 K, 278.7 kPa	–	0.079
363.14 K, 644.4 kPa	–	0.033
363.16 K, 192.3 kPa	–	0.116
363.16 K, 536.1 kPa	–	0.04
363.29 K, 404 kPa	–	0.054
368.03 K, 409.8 kPa	–	0.054
368.1 K, 777.4 kPa	–	0.027
368.15 K, 194.3 kPa	–	0.116
368.15 K, 544.7 kPa	–	0.04
368.16 K, 282.9 kPa	–	0.079
368.16 K, 655.3 kPa	–	0.033
